Source: PMC4669759 (Cell Death & Disease, 2015)

Assays:
MCL-1–BIM complexes [1] = biological target: T1, MCL-1–BIM complexes (Homo sapiens, UniProt Q07820); assay: MCL-1/BIM co-immunoprecipitation and immunoblot in H929 cells; type: cell-based; conditions: 10 μM, 4 h
T1 construct: endogenous in cells; host or cells: H929
Experimental: Figure 1 MCL-1 levels are elevated in cancer cells after treatment with MCL-1-binding small molecules. (a) H929 multiple myeloma cells were treated for 4 h with 10 μM A-1210477 before immunopreciptating MCL-1. […] A control H929 lysate was run in lane 1, and an immunoprecipitation with a non-specific antibody (Ig) was run in lane 2. The positions of molecular weight markers (specified in kiloDaltons) are indicated on the left. (b) HCC-1806 breast cancer cells were incubated with increasing concentrations of A-1210477 (0.1, 0.5, 1, 5, 10, 15, or 20 μM) or bortezomib (2, 10, or 50 nM) for 8 h before assessing MCL-1 and NOXA levels by immunoblotting. β-Actin was probed as a protein loading control. The lower graph depicts reverse transcriptase-PCR quantification of MCL1 mRNA from HCC-1806 cells treated for 8 h with similar concentrations of A-1210477. (c) HCC-1806 cells were incubated with increasing concentrations (0.1, 0.5, 1, 5, 10, and 20 μM) of A-954248, A-962653, or A-1248767 for 24 h before assessing MCL-1 and BCL-XL levels by immunoblotting. β-Actin was probed as a protein loading control
Antibodies for MCL-1-BIM co-immunoprecipitation studies were obtained from Thermo Fisher Scientific (Waltham, MA, USA; anti-MCL-1 clone RC13) and Abcam (Cambridge, MA, USA; anti-BIM clone Y36). […]

MCL-1–BIM complexes [2] = biological target: T1, MCL-1–BIM complexes; assay: Co-immunoprecipitation–electrochemiluminescent ELISA of MCL-1–BIM complexes in H929 cells; type: cell-based; conditions: 4 h
Experimental: (a) H929 cells were treated with increasing concentrations of A-1210477 for 4 h. […] All data represent the mean of triplicate experiments, with error bars indicating the S.D. (b) Quantitative measurement of protein–protein interactions using a luciferase-based mammalian two-hybrid assay. […] All data represent the means of triplicate experiments, with error bars indicating the S.Ds.
After compound treatments, cells were lysed in buffer containing 1% CHAPS, 10 mM HEPES, and 150 mM NaCl with protease inhibitor cocktail (Roche, Indianapolis, IN, USA). In all, 100 μg of cell lysate was added to each well of a Meso Scale Discovery (Rockville, MD, USA) 96-well plate precoated with biotinylated anti-MCL-1 antibody (clone RC13) from Thermo Fisher Scientific. MCL-1-BIM complexes were detected with rabbit anti-BIM antibody (clone Y36) from Abcam, followed by Sulfo-tagged anti-rabbit antibody (Meso Scale Discovery; cat no. R32AB-5) and Meso Scale Discovery reading buffer with surfactant (cat. no. R92TC-2) according to the manufacturer's recommendations. Each step was followed by washing three times with PBS-T (PBS+0.1% Tween-20).

H929 cells = assay: Cell viability, H929 cells; type: cell-based, human; conditions: H929, 48 h
Experimental: (§1) Figure 4 Indole-2-carboxylic acids induce the hallmarks of apoptosis in MCL-1-dependent cancer cell line H929. (a) Digitonin-permeabilized H929 cells were treated with 10 μM BH3 peptides for 4 h, and intact H929 cells were incubated with increasing concentrations (0.1–10 μM) of A-1208746 for 4 h before assessing the levels of cytochrome c released into the cytosol. (b) H929 and RS4;11 cells were incubated with increasing concentrations of MCL-1 inhibitors or the BCL-2-selective inhibitor ABT-199 (venetoclax) for 48 h before determining cell viability. Cell killing IC50s are plotted with each value representing the mean of three separate experiments. Error bars represent the S.E.M. (c) H929 cells were incubated with increasing concentrations of MCL-1 inhibitors in the presence or absence of the pan-caspase inhibitor QVD (100 μM) for 4 h before assessing caspase-3/-7 activation, mitochondrial membrane polarization, and the exposure of phosphatidylserine. […]
(§2) Adherent cell lines were seeded at 50 000 cells per well in 96-well plates and treated for 48 h with compounds diluted in half-log steps starting at 30 μM and ending at 0.001 μM. […] Effects on proliferation and viability were determined using CellTiter-Glo reagent from Promega (Madison, WI, USA) according to the manufacturer's instructions. IC50 values were determined by non-linear regression analysis of the concentration response data.

BCL-2 = BCL-2 (Homo sapiens, UniProt P10415); assay: TR-FRET binding affinity assay, BCL-2
Experimental: TR-FRET-binding affinity assays were performed for BCL-2, BCL-XL, and MCL-1 in 4.52 mM monobasic potassium phosphate, 15.48 mM dibasic potassium phosphate, 1 mM sodium EDTA, 0.05% Pluronic F-68 detergent, 50 mM sodium chloride, and 1 mM DTT (pH 7.5) as described previously for BCL-XL.[6] For MCL-1 assays, GST-tagged MCL-1 (1 nM) was mixed with 100 nM f-Bak, 1 nM Tb-labeled anti-GST antibody, and compound at room temperature (RT) for 60 min. Fluorescence was measured on an Envision plate reader (Perkin-Elmer, Waltham, MA, USA) using a 340/35 nm excitation filter and 520/525 (f-Bak) and 495/510 nm (Tb-labeled anti-GST antibody) emission filters.

RS4;11 cell line = assay: Cell viability, RS4;11 cells; type: cell-based; conditions: RS4;11, 48 h
Experimental: as §1, §2

H2110 cells = assay: Cell viability, H2110 cells; type: cell-based, human
Experimental: Figure 5 A-1210477 kills MCL-1-dependent NSCLC cancer cell lines. NSCLC cell lines (a) H2110 or (c) H23 were transfected with a construct expressing the MCL1 CDS tagged with a Flag epitope or empty control vector. These cells were subsequently transfected with siRNAs targeting the MCL1 CDS, the MCL1 3′ UTRa or UTRb, or a scrambled control sequence. Cell viability was assessed 72 h later with MCL-1 and Flag immunoblots performed in parallel. (b) H2110 or (d) H23 cells were treated with increasing concentrations of A-1210477 for 72 h before assessing cell viability.
Adherent cell lines were seeded at 50 000 cells per well in 96-well plates and treated for 48 h with compounds diluted in half-log steps starting at 30 μM and ending at 0.001 μM. Multiple myeloma cell lines were seeded at 15 000–20 000 cells per well and treated similarly. Effects on proliferation and viability were determined using CellTiter-Glo reagent from Promega (Madison, WI, USA) according to the manufacturer's instructions. IC50 values were determined by non-linear regression analysis of the concentration response data.

T1 sequence (Q07820 whole entry, one chain of several): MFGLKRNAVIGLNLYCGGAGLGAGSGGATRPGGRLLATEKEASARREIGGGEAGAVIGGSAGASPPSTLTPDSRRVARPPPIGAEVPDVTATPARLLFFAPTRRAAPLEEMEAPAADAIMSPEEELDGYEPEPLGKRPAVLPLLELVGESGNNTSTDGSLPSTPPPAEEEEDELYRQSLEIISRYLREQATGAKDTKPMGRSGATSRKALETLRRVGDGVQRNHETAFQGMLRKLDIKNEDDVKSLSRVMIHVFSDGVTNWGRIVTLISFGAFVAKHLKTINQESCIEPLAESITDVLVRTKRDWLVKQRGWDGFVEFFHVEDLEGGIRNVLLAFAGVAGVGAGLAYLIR
Sequence of BCL-2 (P10415 whole entry): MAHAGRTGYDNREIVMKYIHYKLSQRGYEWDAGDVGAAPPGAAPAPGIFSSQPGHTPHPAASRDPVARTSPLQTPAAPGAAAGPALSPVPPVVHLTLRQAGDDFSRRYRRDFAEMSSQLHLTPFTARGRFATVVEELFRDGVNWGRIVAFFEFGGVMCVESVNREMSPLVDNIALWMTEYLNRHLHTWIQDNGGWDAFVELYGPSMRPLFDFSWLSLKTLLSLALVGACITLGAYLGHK

Cc1nn(C)c(COc2ccc(N3CCN(S(=O)(=O)N(C)C)CC3)cc2)c1-c1cccc2c(CCCOc3cccc4ccccc34)c(C(=O)O)n(CCN3CCOCC3)c12 [A-1210477] was tested, and the “BIM co-immunoprecipitated with MCL-1 antibody” value (MCL-1–BIM complexes [1]) was “reduce the amount of BIM co-immunoprecipitated”, the “IC50, reduction of BIM co-immunoprecipitated with MCL-1” value (MCL-1–BIM complexes [2]) was “low-μM range” and the “cell killing IC50” value (H929 cells) was “low-μM range”. The Ki (BCL-2) was 0.132 µM, the “effect on cell viability” value (RS4;11 cell line) was “no effect” and the IC50 (H2110 cells; H2110) was < 10 µM. The EC50 (H2110 cells; H2110, 72 h) was 5.3 µM.
